Measurements published in patent publication US20220152031A1, “PYRIDAZINONES AND METHODS OF USE THEREOF” (Goldfinch Bio, Inc., priority 2019, published 2022).
“Also recorded” adds a separate entry of the source.

Experiments:
TRPC4 = target: T1, TRPC4 (Homo sapiens, UniProt Q9UBN4); test: TRPC4 activity assay (FLIPR calcium fluorescence, HEK-TREx hTRPC4 cells); type: cell-based; conditions: Table 5, HEK-TREx hTRPC4; read-out: TRPC4 FLIPR IC50
T1 construct: expressed in transfected cells
T1 sequence (Q9UBN4 1-982 isoform Q9UBN4-5): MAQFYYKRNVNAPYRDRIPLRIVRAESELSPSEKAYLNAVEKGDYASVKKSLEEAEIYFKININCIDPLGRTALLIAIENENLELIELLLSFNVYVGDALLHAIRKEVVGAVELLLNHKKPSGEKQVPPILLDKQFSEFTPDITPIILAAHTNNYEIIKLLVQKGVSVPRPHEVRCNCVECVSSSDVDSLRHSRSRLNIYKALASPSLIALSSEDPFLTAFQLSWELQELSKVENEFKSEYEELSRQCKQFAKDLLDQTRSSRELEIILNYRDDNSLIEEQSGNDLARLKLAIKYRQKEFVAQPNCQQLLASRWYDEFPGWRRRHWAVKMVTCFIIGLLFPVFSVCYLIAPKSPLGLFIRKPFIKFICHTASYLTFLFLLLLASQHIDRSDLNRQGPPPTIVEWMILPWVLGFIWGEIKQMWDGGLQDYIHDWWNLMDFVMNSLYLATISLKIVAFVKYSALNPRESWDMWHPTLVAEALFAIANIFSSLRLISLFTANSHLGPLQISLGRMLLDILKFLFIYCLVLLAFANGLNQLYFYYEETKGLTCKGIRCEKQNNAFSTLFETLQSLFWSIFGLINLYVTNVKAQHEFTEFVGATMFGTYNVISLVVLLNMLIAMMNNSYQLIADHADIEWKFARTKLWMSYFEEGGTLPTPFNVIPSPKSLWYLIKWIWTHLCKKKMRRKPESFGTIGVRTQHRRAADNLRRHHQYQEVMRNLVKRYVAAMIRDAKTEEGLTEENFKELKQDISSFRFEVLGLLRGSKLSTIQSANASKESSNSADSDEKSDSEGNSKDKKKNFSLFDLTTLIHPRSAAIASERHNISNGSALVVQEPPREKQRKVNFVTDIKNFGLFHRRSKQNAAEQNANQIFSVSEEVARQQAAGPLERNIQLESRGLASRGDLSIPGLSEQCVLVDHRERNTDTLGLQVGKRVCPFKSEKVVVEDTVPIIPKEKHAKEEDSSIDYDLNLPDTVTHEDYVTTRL
Experimental: ICLN-1694 cells (HEK-TREx hTRPC4) expressing TRPC4 were generated as follows. Commercially available HekTrex-293 cells were seeded at 0.7×10^6 cells/well in a 1×6-well plate 24 hrs prior to transfection using 2 mL cell growth media containing no antibiotics (lx DMEM/high glucose (Hyclone #SH30022.02); 10% fetal bovine serum (Sigma) 2 mM sodium pyruvate, 10 mM HEPES). […] On day 2, 2 μg of plasmid DNA plus 6 μl of Xtreme-GENE HP reagent in Optimem (200 μl total volume) was prepared and incubated for 15 min at room temperature. This plasmid solution was then gently overlayed dropwise onto each well and the plate was gently swirled to mix complex with the media for approximately 30 seconds. Transfected cells were incubated at 37° C. in a 10% CO2 incubator for 24 hrs. The transfected cells were harvested and transferred into 2×150 mm dishes containing cell growth media with no antibiotics at 37° C.
The next day selection was initiated to generate a stable pool by adding cell growth media containing 150 μg/mL Hygromycin and 5 μg/mL Blasticidin and cells were allowed to grow. Media with the selection agent was changed every 1-2 days as needed to remove dead cells. After 7 days, the hygromycin concentration was reduced to 75 μg/mL and cells growth was allowed to continue.
Single clones were selected as follows. The stable pool was diluted to 10 cells/mL and seeded (100 μl/well) into 24×96 well plates (˜1 cell/well) and allowed to grow for 7 days in cell growth media. Fresh media (100 μl) was added and the cells allowed to grow for another 1-2 weeks and then stored frozen or used immediately.
10-point dose response curves were generated using the Echo-550 acoustic dispenser. Compound source plates were made by serially diluting compound stocks to create 10 mM, 1 mM, and 0.1 mM solutions in DMSO into Echo-certified LDV plates. The Echo then serially spotted 100% DMSO stock solutions into source dose response plates to generate a 4-fold dilution scheme. 100% DMSO was added to the spotted dose response plates to bring the final volume to 5 μl. 300 nl of the dose response stock plate was then spotted into pre-incubation and stimulation assay plates. 50 μl of pre-incubation buffer and 100 μl of stimulation buffer was then added to the plates resulting in a final assay test concentration range of 30 μM to 0.0001 μM with a final DMSO concentration of 0.3%.
ICLN-1694 cells (HEK-TREx hTRPC4) were plated onto 384 well, black pdl-coated microplates and maintained in cell growth media supplemented with 1 μg/mL tetracycline the day prior to use for experiments. TRPC4 expression was induced by the application of 1 μg/mL tetracycline at the time of plating. […] Cells were incubated at room temperature, protected from light, for 60-90 minutes. After the incubation period, the dye was removed and replaced with 10 μl of EBSS. Cell, pre-incubation and stimulation plates were loaded onto the FLIPR-II and the assay was initiated. The FLIPR measured a 10 second baseline and then added 10 μl of 2× compounds (or controls). Changes in fluorescence were monitored for an additional 5 minutes. After a 5 minute pre-incubation, 20 μl of 2× Englerin A (with 1× compound or controls) was added to the cell plate. The final Engerlin A stimulation concentration in the assay was 100 nM. After the Englerin A addition, changes in fluorescence were monitored for an additional 5 minutes.
Compound modulation of TRPC4 calcium response was determined as follows. After the Englerin A, fluorescence was monitored for a 5-minute period. The maximum relative fluorescence response (minus the control response of 1 μM of an internal control compound known to maximally block TRPC4 calcium response, the “REF INHIB” in the formula below) was captured and exported from the FLIPR.
Compound effect is calculated as % inhibition using the following formula: […]
wherein “RFU” is the relative fluorescent units.

AT1R transgenic rats = test: AT1R transgenic rat model of FSGS; type: in vivo; conditions: oral once daily 3 mg/kg or 10 mg/kg; UniNX and AngII infusion; up to 3 weeks of treatment
Experimental: The AT1R transgenic rat model of FSGS is characterized by podocyte-specific expression of human AT1R. […] See Zhou et al., Science (2017), vol. 358 (6368), 1332-1336. In the present study, pathophysiology in AT1R transgenic rats was accelerated with unilateral nephrectomy (UniNX) and minipump AngII infusion. Compound 100 was dosed orally once daily at 3 mg/kg or 10 mg/kg, and the urine protein creatinine ratio was determined at −1, 0, 1, 2, and 3 weeks of treatment.

[1] = Drug exposure in human kidney organoid implanted under the rat kidney capsule after oral dosing; type: in vivo; conditions: 10 mg/kg PO QD for 3 consecutive days, necropsy after 3 days
Experimental: Initially a space was created under the kidney capsule with angled fine forceps. A 22G blunt needle was used to further open the space under the kidney capsule. An angled cut was made at the tip of the 18G feeding tube attached to a 1 mL syringe. The 18G feeding tube was pre-wet with APEL2 medium, and one organoid from the dish containing APEL2 with the 18G feeding tube was carefully aspirated, keeping the entire organoid close to the tip of the 18G feeding tube, and not aspirating organoid into the syringe. An 18G feeding tube containing the organoid was inserted into the space created under the kidney capsule, and the organoid was injected towards the back end of the created space. The animal was closed, and then the procedure was repeated on the second kidney. After the second transplant, the animal was closed again and allowed to recover from anesthesia. The next organoid was started to be removed from TW (2+1 spare organoids) upon closing of animal after second kidney capsule transplant.
Compound 100 was administered to animals after transplant orally, once-daily as follows:
After 3 days, necropsy was performed to study distribution of compound 100 in the animal.

PAN-injured rats = test: Puromycin aminonucleoside (PAN)-induced glomerular injury in rats; type: in vivo, Sprague-Dawley rats; conditions: for albuminuria: PAN model of glomerular injury in rats
Description: The objective of this study is to evaluate the dose-dependent effects of compound 100 on PAN induced glomerular kidney injury as indexed by albuminuria. Eighty (80), male Sprague-Dawley rats weighing approximately 125-150 g and approximately 5-6 weeks of age were acquired from Charles River. They were fed a standard chow diet (Harlan 8640), housed under standard conditions, and allowed to acclimate for at least 5 days prior to study inception. On D-2, rats were placed into weight-matched treatment groups and were placed, individually housed, into metabolic cages for the balance of the study. A 24 hour baseline (Day 0) urine was collected followed by a baseline blood collection via conscious tail venous puncture. Rats were then administered vehicle or test article. Two (2) hours following administration of vehicle or test agent on Day 0, rats received an administration of (5 mL/kg, s.c.) vehicle (sterile saline) or puromycin aminonucleoside (PAN; challenge agent; 75 mg/kg) dissolved in vehicle. Intermittent (Day 4, 7 and 10) 24 hour urine volumes were determined and samples (4 samples/animal/time point; 0.5 mL/sample) were obtained. Additionally, intermittent (Day 4, 7 and 10) blood samples were collected via conscious tail venous puncture 2 hours±1 minute post-AM dose. Immediately following the last blood collection, rats were anesthetized with isoflurane, tissues harvested, and animals sacrificed. Endpoint kidney weights and indices were obtained. Urine samples were immediately flash-frozen in liquid N2 and stored at −80° C. until analyzed. Whole blood samples collected on K3EDTA were processed appropriately for the production of plasma for PK measurements.

| Compound | IC50 (TRPC4) [nM] | efficacy (urine protein creatinine ratio) (AT1R transgenic rats) | drug exposure in implanted organoid [1] | urinary albumin excretion (PAN-injured rats; 30 mg/kg BID dosing, at 7 and 10 days) | urinary albumin excretion (PAN-injured rats; 30 mg/kg QD dosing, at 10 days) | urinary albumin excretion (PAN-injured rats; 30 mg/kg once (QD) or twice (BID) daily, following injury with PAN) | albuminuria (PAN-injured rats) |
| --- | --- | --- | --- | --- | --- | --- | --- |
| CC(c1ccc(F)cc1C(F)(F)F)N1C[C@@H](C)N(c2cn[nH]c(=O)c2Cl)CC1=O (single isomer, unassigned) [MD] | 0.01 to 1000 |  |  |  |  |  |  |
| O=c1[nH]ncc(N2CCc3c(ncnc3Oc3ccc(F)cc3C(F)(F)F)C2)c1Cl [Compound 100, 4-chloro-5-[4-[4-fluoro-2-(trifluoromethyl)phenoxy]-5H,6H,7H,8H-pyrido[3,4-d]pyrimidin-7-yl]-2,3-dihydropyridazin-3-one] |  | efficacious | drug exposure in the implanted organoid; also recorded: drug exposure in an implanted organoid | Significant reductions | Significant reductions | reduced urinary albumin excretion | effective in reducing albuminuria |
| NC(=O)c1ncn([C@@H]2O[C@H](CO)[C@@H](O)[C@H]2O)c1O [Mizoribine, mizoribine, reference compound] |  |  |  |  |  |  | efficacious in reducing albuminuria |
